Data as given in publication PMC12406664, “New derivatives of 6-nitrocoumarin-3-thiosemicarbazone exhibit improved antiparasitic activity in the placenta against Trypanosoma cruzi and Toxoplasma gondii” (Antimicrobial Agents and Chemotherapy, 2025).

Experiments:
[1] = Cyclic voltammetry, reduction potentials in DMSO (HDME, vs. Ag/AgCl); settings: 2.00 V/s
Method: Electrochemical studies were carried out on a Metrohm Autolab instrument model PGSTAT204, using dimethyl sulfoxide (DMSO) as the solvent (1 mM solutions), tetrabutylammonium perchlorate (0.1 M TBAP) as the supporting electrolyte, a hanging drop mercury electrode (HDME) as the working electrode, Ag/AgCl (3M KCl) as the reference electrode and a graphite rod as the counter electrode. All measurements were performed after bubbling with nitrogen (N2) for 10 minutes.

[2] = tested on: T. cruzi trypomastigotes, Dm28 strain; assay: Resazurin viability assay on free T. cruzi trypomastigotes; settings: Trypanosoma cruzi, 24 h, read-out: Viability T. cruzi (%)
In short: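 Free Dm28 T. cruzi trypomastigotes were exposed to compounds at 100 µM for 24 h, with nifurtimox as positive control and untreated parasites as negative control. Resazurin (3 mM final) with 0.8 mM phenazine was then added for 3 h at 37°C, and fluorescence was read at 560/590 nm.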

[3] = tested on: T. gondii (RH strain) in BeWo cells; assay: T. gondii DNA load in infected BeWo cells by real-time qPCR; format: cell-based, Toxoplasma gondii; settings: IC50 concentration
Method: Cells or HPE were exposed to parasites. […] The following treatment conditions were used in both infection models. […] Untreated cells or HPE served as a negative control, and the compounds’ activity was compared with the reference drugs (NFX and PMN).
Subsequently, cells were exposed to parasites at a 1:1 ratio (cell: parasite) for 24 hours. Finally, the cells were washed with PBS and harvested using trypsin. For the parasitic DNA load in the ex vivo infection model, HPE was incubated in 24-well plates and exposed to parasites at a concentration of 10^5 parasites/mL for 24 hours. Finally, they were washed with PBS and homogenized using the ultraturrax homogenizer OMNI TipTM. Genomic DNA was extracted from BeWo cells or HPE using the Wizard Genomic DNA Purification Kit (Promega, USA) following the manufacturer’s instructions. The resulting DNA was quantified using a μDrop Plate DNA quantification system on the Varioskan Flash multimode reader (Thermo Scientific, USA). For the amplification of human DNA and parasitic DNA, three pairs of primers specific for human GAPDH (hGADPH), T. cruzi satellite DNA, and T. gondii B1 gene DNA were used (Table 7). Each reaction mixture contained 0.5 µL of 10 nM of each primer (Forward and reverse), 1 ng of DNA from T. cruzi samples, 10 ng of DNA from T. gondii samples, 10 µL of SensiFASTTM SYBR Hi-ROX kit (Bioline, Heidelberg, Baden Württemberg, Germany), and ultrapure water (Sigma-Aldrich, St. Louis, MO, USA) for a total of 20 µL.
Amplification was carried out using the CFX96 Touch Deep Well Real-Time PCR Detection System (Biorad, California, USA) with the following cycling program: initial denaturation at 95°C for 3 min, followed by 40 cycles of denaturation at 95°C for 5 s, annealing at 60°C for 30 s, and a dissociation stage ranging from 60°C to 95°C. The relative quantification analysis of the results was expressed as RQ values using the comparative […] (∆∆Ct) ([80]).

[4] = tested on: T. gondii tachyzoites (strain RH); assay: Intracellular ROS generation (DCF probe) in T. gondii; format: cell-based, Toxoplasma gondii; settings: compound at IC50, menadione 20 µM, 40 minutes, vs untreated control
Method: ROS detection was performed using the 2′,7′-dichlorodihydrofluorescein diacetate (DCFH2-DA) method ([45]). For the assay, Dm28c trypomastigotes and tachyzoites were seeded in 96-well plates at a density of 10⁶ parasites/mL. In contrast, BeWo cells were seeded at 5 × 10⁴ cells per well, using the previously described culture medium.
After incubation with 20 µM DCFH2-DA for 15 minutes at 37°C, the parasites were centrifuged at 3,500 × g, washed twice with PBS (pH 7.4), and subsequently transferred to Nunc 96-well fluorescence plates. Meanwhile, after 24 hours of incubation at 37°C and 5% CO₂, the culture medium of BeWo cells was replaced, and 20 µM DCFH2-DA solution was added, followed by a 15 minute incubation at 37°C. The cells were then washed with PBS at pH 7.4. As a positive control, 20 µM menadione was used, while the negative control consisted of culture medium without compounds.
Over time, the area under the fluorescence increase curve was determined using Origin 8 software (version 9.2), with normalization relative to the control. The results correspond to three independent experiments' mean ± standard deviation (SD).

[5] = tested on: T. gondii tachyzoites, RH strain; assay: Resazurin viability assay on free T. gondii tachyzoites; format: cell-based, Toxoplasma gondii
Excerpt: Untreated parasites served as a negative control.

[6] = tested on: human placental explants (HPE); assay: Histopathology of uninfected HPE exposed to the compounds alone; settings: explants incubated only with the compound, 24 h, IC50 concentration
Method: The HPE was fixed in 10% formaldehyde in 0.1 M phosphate buffer (pH 7.3) for 24 h, dehydrated in alcohol, clarified in xylene, embedded in paraffin, and sectioned at 3 µm. Paraffin histological sections were stained with hematoxylin-eosin for routine histological analysis, Picro Sirius red, and trichromic Masson for collagen histochemistry. Sections for the histological analysis were observed under an optical microscope (Leica DM500) and images were captured with a Leica ICC50 W camera ([7], [91]).

[7] = Cytotoxicity on cells (resazurin), BeWo; format: cell-based; settings: human, BeWo trophoblast cells
Excerpt: (§1) Triton X-100 was used as a positive control, and untreated cells served as a negative control. In addition, the maximum concentration of DMSO was used as a control for the method. […] The obtained values were expressed as IC50([88]).

[8] = Cytotoxicity on cells (resazurin), EA.hy926; format: cell-based; settings: human, EA.hy926 endothelial cells
Excerpt: as §1

## C/C(=N\NC(N)=S)c1c(O)c2cc([N+](=O)[O-])ccc2oc1=O [Compound 1, (E)−2-(1-(4-hydroxy-6-nitro-2-oxo-2H-chromen-3-yl)ethylidene)hydrazine-1-carbothioamide]
[1]; anodic peak IIa
  E(pIIa): −0.98 V
[1]; cathodic peak Icb, nitro reduction
  E(pIcb): ~−0.99 V
[2]
  viability at 100 µM: 85.5 ± 11.3%
[3]; co-incubation
  decrease in parasite DNA load: around 50%
[3]; post-infection treatment
  effect on parasite DNA load: no activity against the intracellular form
[4]
  ROS generation (DCF fluorescence): increase in ROS levels, albeit lower than the positive control
[5]; Toxoplasma gondii, extracellular tachyzoites RH strain, 24 h, resazurin
  IC50: 17.3 ± 0.5 µM
[5]; Toxoplasma gondii, tachyzoites RH, 100 µM, 24 h
  viability at 100 µM: 24.3 ± 10.4%
[5]; parasite T. gondii
  SI = BeWo CC50/parasite IC50: 22.3
  SI = EA.hy926 CC50/parasite IC50: >23.1
[6]
  tissue damage caused by the compound itself in HPE: neither compound induced tissue damage
[7]
  CC50 at 24 h: 386.9 ± 1 µM
[8]
  CC50 at 24 h: > 400 µM
